Here are results for one compound from patent EP0366451A2, “The use of oxidized polyamines, especially NN'-Bis-(3-propionaldehyde)-1-4-diaminobutane (sperminedialdehyde) as immunosuppressive agents” (ORTHO PHARMACEUTICAL CORPORATION, priority 1988, dated 1990).

The test system of one experiment is Human B lymphocytes. The experiment in a line: Pokeweed mitogen driven human B cell proliferation after 1 hour incubation. Type of experiment: cell-based. Conditions: compared with T cells; Figure 1. The method, then: Human T & B lymphocytes were incubated separately with different concentrations of spermine dialdehyde in vitro for 1 hour. Cells were washed extensively and set up in a PHA (for T cell) or PWM (B cell) proliferation assay. A graph is depicted wherein percentage of response is plotted as a function of concentration of spermine dialdehyde.
Peripheral blood lymphocytes (PBL) were obtained from the blood of normal donors by using standard Ficoll-Hypaque gradient techniques. The T and non-T cells were separated by standard sheep red blood cell (SRBC) rosetting technique. Briefly, 5 x 10⁶/ml PBL were incubated with 1% neuraminidase-treated SRBC, and rosetted cells were separated from non-rosetted cells in a Ficoll-Hypaque gradient. The rosetted cells were designated as T cells. Purified B lymphocytes were obtained from non-rosetted cells by removal of residual T cells using the Pan T monoclonal antibody OKT 11 and complement.
T cell proliferation: 7 x 10⁴ - 10⁵ human T lymphocytes were cultured in flat bottom microtiter plates (Flow) in the presence of 0.1% PHA-P or 1/64 PWM for 4 days. 3H-thymidine (0.1 MCi/well) was added for the last 6 hours of the culture period. […] Cell associated radioactivity was determined by scintillation counting in an automated counter. All of the results were expressed as % response calculated according to the formula: [formula] […]

A further experiment has as its system C57BL mice. The experiment is described as follows: In vivo generation of cytotoxic T cells in mice. The note with it: Figure 5. The method, then: C57BL mice were injected i.p. daily with different doses of spermine dialdehyde. On day 2, they also received 107 DBA spleen cells. Seven days later, animals were sacrificed and percentage of cytotoxic T cells (measured by % specific lipes generated in the spleen was calculated and plotted as a function of concentration of spermine dialdehyde.
In vivo generation of cytotoxic T cells was performed according to the method described by Faanes et al., Clin. Esp. Immunol., Vol. 27 pp. 502-506 (1977). C57BL mice were arranged into groups of 10 and injected IP with different doses of spermine dialdehyde or control preparation. Two days after first injection, they received i.p. injection of 10⁷ DBA spleen cells which were prepared as described previously. Ten days after cell injection, C57 mice were sacrificed by cervical dislocation and cytotoxic T cells generated in the spleen were quantified by measuring the ability of those cells to lyse 51Cr labelled PB15 target cells (a mastocytoma, cells of DBA origin or Con A stimulated DBA spleen blasts). P815 cells or blasts were suspended at 10⁷ cells/ml and incubated with 200 MCi of 51Cr for 1 hour at 37°C. […] After incubation, 100 Ml of supernatant was removed and counted in the gamma counter. The percentage of cytotoxic T cells was calculated: [formula] […]

A further experiment has as its system C3H mice. The experiment is described as follows: Skin graft transplant (Balb/c skin onto C3H mice). Type of experiment: in vivo.
The test system of the next experiment is cytosolic ALDH. The experiment in a line: NAD-linked cytosolic ALDH assay, L1210/CPA cells. Format: biochemical, Murine. The note with it: as substrate, L1210/CPA cytosol. On the procedure: (§1) Cultured murine leukemic cells and livers (excised from mice immediately after cervical dislocation) were homogenized in 3 volumes of ice-cold 1.15% KCl and 1 mM EDTA. The homogenate was centrifuged at 100,000 g for 45 min and the resulting supernatant was used to measure cytosolic ALDH activity. For particulate ALDH assay, the pellet (and homogenate for total ALDH) was resuspended in homogenizing buffer and treated with 0.25% Triton X-100 for 30 min at 4°C. The solubilized preparations were centrifuged at 48,000 g for 30 min and the supernatants were drawn off for ALDH determinations.
(§2) ALDH activity was measured by monitoring the reduction of NAD or NADp for 5-6 min at […] at 37°C in DU70 spectrophotometer (Beckman). The assay mixture contained 50 mM potassium phosphate buffer, pH 7.4, 2.0 mM NAD (or NADP) and 1.0 mM EDTA. The reaction was started by adding the substrate (SDA or other aldehyde) to the prewarmed (5 min at 37°C) assay mixture containing enzyme preparation. Pyrazole (0.1 mM) was added particularly for liver enzyme, to inhibit alcohol dehydrogenase. The apparent Km and maximum velocity (Vmax) values were calculated using a Lineweaver-Burk plot based on the estimation of the slope by regression analysis. Enzyme activity was expressed as mU (nmoles/min) per mg of protein. Protein contents were determined by the Bradford method, using bovine serum albumin as the standard.

Experiment [1] relates to Cytosolic ALDH in mouse liver. The experiment in a line: NAD-linked cytosolic ALDH assay, mouse liver. Format: biochemical. The method, then: as §1, §2
The subject of experiment [2] is NADP-linked cytosolic ALDH. The experiment is described as follows: NADP-linked cytosolic ALDH assay, L1210/CPA cells. Format: biochemical, Murine. The note with it: SDA as substrate, L1210/CPA cells. The method, then:
as §1
as §2, with “standard. […]” for “standard.”

A further experiment concerns ALDH. The experiment in a line: ALDH assay in the mitochondrial fraction of L1210/CPA or mouse liver. Type of experiment: biochemical. Conditions: SDA up to 2.5 mM. The method, then: as §1, §2

Experimental for C3H mice: Spermine dialdehyde was administered s.c, right after transplantation and continued throughout the study. Cyclosporin A (CsA) was run along as a positive control.

Take `O=CCCNCCCCNCCC=O` [SDA, NN′-Bis-(3-propionaldehyde)-1-4-diaminobutane]: in the experiment on Human B lymphocytes, the “suppression of B lymphocyte proliferation” value is reported as “a much greater quantity was required”. Also, the ED (maximum) in the experiment with C57BL mice (Mus musculus, T-cell, ip, read-out: dose that appeared to attain maximum suppression of cytotoxic T cell generation) is 10 mg/kg. Besides, in the experiment on C57BL mice (i.p.), the “generation of cytotoxic T cells” value was “suppressed the generation of cytotoxic T cells in a dose related manner”. For the same compound, the skin graft survival result with C3H mice (SDA s.c., all 3 doses, especially 10 mg/kg and 20 mg/kg, Figure 6) is “prolonged skin graft survival”. The “efficacy in skin graft experiments compared with CsA” value in the experiment on C3H mice (mouse, in vivo) was “more effective than a comparable dose of CsA”. For the same compound, the Michaelis constant (Km) (commonly the substrate concentration at which the rate is half of its maximum) amounted to 41.6 µM in the experiment with cytosolic ALDH (NAD, ± SEM, 3-4 experiments) and 48.5 µM in experiment [1] (as substrate, mouse liver cytosol, NAD, ± SEM, 3-4 experiments). Besides, the “Specific (activity of ALDH)” value in the experiment on cytosolic ALDH (propionaldehyde 1.0 mM) was 6.8 ± 1.6 mU/mg Protein; in experiment [1] (as substrate, mouse liver cytosol, propionaldehyde 1.0 mM) it was 10.5 ± 3.2 mU/mg Protein. In addition, the “specific activity of ALDH, liver compared to L1210 cells” value in experiment [1] (SDA as substrate, per mg protein) was determined as 1.5 times. Moreover, the “activity of NADP-linked cytosolic ALDH” value in experiment [2] is recorded as 3.0-3.5 mU/mg protein. Besides, in the experiment on ALDH, the “ALDH activity in the mitochondrial fraction” value was “could not be measured”.
